For one experiment, the system named is circulating lymphocytes. The experiment in a line: Assessment of in vivo efficacy: circulating lymphocytes after oral administration to Wistar rats. On the set-up: species or system rat. The note with it: Rattus norvegicus, Lymphocyte; 6 h after oral administration of 10 mg/kg, normotensive male Wistar rats, compared to vehicle group; read-out: Lymphocyte counts. Here is the method: Assessment of In Vivo Efficacy
The efficacy of the compounds of Formula (I) is assessed by measuring the circulating lymphocytes after oral administration of 3 to 30 mg/kg of a compound of Formula (I) to normotensive male Wistar rats. The animals are housed in climate-controlled conditions with a 12 h-light/dark cycle, and have free access to normal rat chow and drinking water. […] Full blood is subjected to hematology using Advia Hematology system (Bayer Diagnostics, Zurich, Switzerland).
All data are presented as mean±SEM. Statistical analyses are performed by analysis of variance (ANOVA) using Statistica (StatSoft) and the Student-Newman-Keuls procedure for multiple comparisons. The null hypothesis is rejected when p<0.05.

Experiment [1] deals with T1, human S1P1 (EDG1) receptor (Homo sapiens, UniProt P21453).
T1 construct: host or cells: U2OS (Tango EDG1-bla U2OS)
T1 sequence (P21453 whole entry): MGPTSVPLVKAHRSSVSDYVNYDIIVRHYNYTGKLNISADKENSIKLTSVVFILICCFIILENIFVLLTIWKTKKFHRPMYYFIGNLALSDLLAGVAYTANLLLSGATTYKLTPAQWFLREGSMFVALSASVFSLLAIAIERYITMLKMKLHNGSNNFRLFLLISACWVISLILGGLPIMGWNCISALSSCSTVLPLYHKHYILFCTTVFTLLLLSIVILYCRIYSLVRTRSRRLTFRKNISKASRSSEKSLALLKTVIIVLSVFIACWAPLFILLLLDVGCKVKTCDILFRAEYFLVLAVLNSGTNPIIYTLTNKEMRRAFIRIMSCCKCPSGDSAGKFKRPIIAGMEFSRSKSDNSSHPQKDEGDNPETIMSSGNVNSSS
The experiment in a line: S1P1 β-arrestin recruitment (Tango) assay to determine EC50 values. It is filed as cell-based. The note with it: Tango-EDG1 bla U2OS cells, 16 h incubation. An excerpt: S1P1 β-Arrestin Recruitment (Tango) Assay to Determine EC50 Values
Upon ligand activation, G protein-coupled receptors (GPCR) trigger two pathways that independently transduce signals to the cell: one through heterotrimeric GTP-binding proteins (G proteins) and one through β-arrestins. Agonist-induced GPCRs recruit β-arrestin proteins, which then bind to the carboxy-terminal domain of ligand-activated GPCRs. The amount of β-arrestin recruitment can be used to assess the potency and efficacy of GPCR activating ligands.
To measure the potency and efficacy of compounds as S1P1 (EDG1) receptor agonists, Tango™-EDG1 bla U2OS cells (Invitrogen, USA, Catalog #K1520) are used. The Tango™ GPCR technology is based on GeneBLAzer β-lactamase reporter cell assays, which uses a mammalian-optimized β-lactamase reporter gene (bla) combined with a FRET-enabled substrate. The host cells, U2OS, stably express a human S1P1 (EDG1) receptor/transcription factor (TF) fusion protein. The cells also express a recombinant protease tagged β-arrestin protein, which is recruited to the S1P1 receptor upon ligand stimulation and specifically cleaves the S1P1-TF fusion protein. The released TF activates the β-lactamase (bla) reporter gene. To measure the reporter gene activity, cells are loaded with a fluorescent substrate containing two chemically coupled fluorophores, coumarin and fluorescein. […] In the presence of bla, the chemical bond is cleaved and FRET is inhibited. […] The amount of β-arrestin recruitment is proportional to the increase in blue fluorescence.
Tango™-EDG1 bla U2OS cells are cultivated in McCoy's 5A containing 10% dialyzed FBS, 0.1 mM NEAA, 25 mM HEPES, 1 mM sodium pyruvate, 1% Penicillin/Streptomycin, 200 μg/ml zeocin, 50 μg/ml hygromycin and 100 μg/ml geneticin (Invitrogen, USA). Cells are detached with trypsin, resuspended in medium and then counted.
Compounds (10 mM stock in DMSO) are diluted first in DMSO. The pre-diluted compounds solutions are then transferred into Assay Medium/0.1% fatty acid free BSA to reach a fourfold concentrated compound stock, which is applied to the cells to reach the final compound concentrations that range from 10 μM to 0.0005 nM (0.5% final DMSO). Cells are then incubated for 16 h at 37° C. and 5% CO2.
For orientation: Recruitment of arrestin is a read-out of receptor activation apart from second messengers.

Here are results for 24 compounds from US9133179B2, “2-methoxy-pyridin-4-yl-derivatives” (Actelion Pharmaceuticals Ltd., priority 2011, dated 2015).

What is called EC50 is the midpoint of the concentration-response curve. Turning to `CCc1cc(-c2noc(-c3cc(OC)nc(C4CCCC4)c3)n2)cc(C)c1OC[C@@H](O)CNCCC(=O)O` [Example 10], the change in vivo at 10 mg/kg with circulating lymphocytes is -51%. In experiment [1], this compound yielded an EC50 of 0.06 nM.

`CCc1cc(-c2noc(-c3cc(OC)nc(C4CCCC4)c3)n2)cc(C)c1OCCNC(CO)CO` [Example 25, 2-((2-(4-(5-(2-Cyclopentyl-6-methoxypyridin-4-yl)-1,2,4-oxadiazol-3-yl)-2-ethyl-6-methylphenoxy)ethyl)amino)propane-1,3-diol] had a concentration giving a half-maximal response (EC50) in experiment [1] of 4.23 nM.

`CCc1cc(-c2nnc(-c3cc(OC)nc(C4CCCC4)c3)o2)cc(C)c1OC[C@@H](O)CNC(=O)CCC(=O)O` [Example 66]: in experiment [1], it took 0.05 nM to reach a half-maximal effect (EC50).

In the case of `CCc1cc(-c2noc(-c3cc(OC)nc(C4CCCC4)c3)n2)cc(C)c1OCCCN1CC(C(=O)O)C1` [Example 22, 1-(3-(4-(5-(2-Cyclopentyl-6-methoxypyridin-4-yl)-1,2,4-oxadiazol-3-yl)-2-ethyl-6-methylphenoxy)propyl)azetidine-3-carboxylic acid], in experiment [1], the midpoint of the response, the EC50, lay at 2.95 nM.

In turn, `CCc1cc(-c2nc(-c3cc(OC)nc(C4CCCC4)c3)no2)cc(C)c1OCCN1CC(C(=O)O)C1` [Example 58, 1-(2-(4-(3-(2-Cyclopentyl-6-methoxypyridin-4-yl)-1,2,4-oxadiazol-5-yl)-2-ethyl-6-methylphenoxy)ethyl)azetidine-3-carboxylic acid] had a concentration for a half-maximal effect (EC50) in experiment [1] of 0.2 nM. This EC50 is about 15-fold lower than that of the compound before.

As to `CCc1cc(-c2nc(-c3cc(OC)nc(C4CCCC4)c3)no2)cc(C)c1OCCNCCC(=O)O` [Example 57, 3-((2-(4-(3-(2-Cyclopentyl-6-methoxypyridin-4-yl)-1,2,4-oxadiazol-5-yl)-2-ethyl-6-methylphenoxy)ethyl)amino)propanoic acid], the change in vivo at 10 mg/kg in the experiment with circulating lymphocytes is -74%. Moreover, the EC50 in experiment [1] came out at 0.05 nM.

On to `CCc1cc(-c2noc(-c3cc(OC)nc(C4CCCC4)c3)n2)cc(C)c1OCCCNCC(=O)O` [Example 18, 2-((3-(4-(5-(2-Cyclopentyl-6-methoxypyridin-4-yl)-1,2,4-oxadiazol-3-yl)-2-ethyl-6-methylphenoxy)propyl)amino)acetic acid], for which, in the experiment with circulating lymphocytes, the change in vivo at 10 mg/kg was -24%. The compound also yielded a half-maximal effective concentration (EC50) in experiment [1] of 0.3 nM.

On to `CCc1cc(-c2noc(-c3cc(OC)nc(C4CCCC4)c3)n2)cc(C)c1OCCCNC(CO)CO` [Example 26, 2-((3-(4-(5-(2-Cyclopentyl-6-methoxypyridin-4-yl)-1,2,4-oxadiazol-3-yl)-2-ethyl-6-methylphenoxy)propyl)amino)propane-1,3-diol], for which a half-maximal response in experiment [1] (EC50) required 15.1 nM.

Consider `CCc1cc(-c2noc(-c3cc(OC)nc(C4CCCC4)c3)n2)cc(C)c1OCCNCCCC(=O)O` [Example 39, 4-((2-(4-(5-(2-Cyclopentyl-6-methoxypyridin-4-yl)-1,2,4-oxadiazol-3-yl)-2-ethyl-6-methylphenoxy)ethyl)amino)butanoic acid], for which the change in vivo at 10 mg/kg with circulating lymphocytes was -66%. In experiment [1], this compound had an EC50 of 0.1 nM.

`CCc1cc(-c2noc(-c3cc(OC)nc(C4CCCC4)c3)n2)cc(C)c1OCCCNCC(O)CO` (racemic) [Example 28, rac-3-((3-(4-(5-(2-Cyclopentyl-6-methoxypyridin-4-yl)-1,2,4-oxadiazol-3-yl)-2-ethyl-6-methylphenoxy)propyl)amino)propane-1,2-diol] registered a concentration for a half-maximal effect (EC50) in experiment [1] of 25.6 nM.

In the case of `CCc1cc(-c2noc(-c3cc(OC)nc(C4CCCC4)c3)n2)cc(C)c1OCCN1CCC(C(=O)O)C1` (racemic) [Example 8, rac-1-(2-(4-(5-(2-Cyclopentyl-6-methoxypyridin-4-yl)-1,2,4-oxadiazol-3-yl)-2-ethyl-6-methylphenoxy)ethyl)pyrrolidine-3-carboxylic acid], the change in vivo at 10 mg/kg with circulating lymphocytes is -66%. Further, the EC50 in experiment [1] was 0.3 nM.

For `CCc1cc(-c2nc(-c3cc(OC)nc(C4CCCC4)c3)no2)cc(C)c1OCCCNCC(=O)O` [Example 59, 2-((3-(4-(3-(2-Cyclopentyl-6-methoxypyridin-4-yl)-1,2,4-oxadiazol-5-yl)-2-ethyl-6-methylphenoxy)propyl)amino)acetic acid], in the experiment with circulating lymphocytes, the change in vivo at 10 mg/kg was -82%. The response in experiment [1] was half-maximal at 2.7 nM (EC50).

Take `CCc1cc(-c2noc(-c3cc(OC)nc(C4CCCC4)c3)n2)cc(C)c1OCCNCCO` [Example 23, 2-((2-(4-(5-(2-Cyclopentyl-6-methoxypyridin-4-yl)-1,2,4-oxadiazol-3-yl)-2-ethyl-6-methylphenoxy)ethyl)amino)ethanol]: the response in experiment [1] was half-maximal at 24.7 nM (EC50). This counts as double-digit nanomolar.

In turn, `CCc1cc(-c2nnc(-c3cc(OC)nc(C4CCCC4)c3)o2)cc(C)c1OC[C@@H](O)CNCCO` [Example 64, (S)-1-(4-(5-(2-Cyclopentyl-6-methoxypyridin-4-yl)-1,3,4-oxadiazol-2-yl)-2-ethyl-6-methylphenoxy)-3-((2-hydroxyethyl)amino)propan-2-ol] registered an EC50 in experiment [1] of 3 nM.

`CCc1cc(-c2noc(-c3cc(OC)nc(C4CCCC4)c3)n2)cc(C)c1OCCCNC(=O)CO` [Example 29, N-(3-(4-(5-(2-Cyclopentyl-6-methoxypyridin-4-yl)-1,2,4-oxadiazol-3-yl)-2-ethyl-6-methylphenoxy)propyl)-2-hydroxyacetamide]: the change in vivo at 10 mg/kg with circulating lymphocytes is -76%. The 50% effective concentration (EC50) in experiment [1] came out at 0.265 nM.

For `CCc1cc(-c2noc(-c3cc(OC)nc(C4CCCC4)c3)n2)cc(C)c1OCCCN(C)C(=O)CC(=O)O` [Example 33, 3-((3-(4-(5-(2-Cyclopentyl-6-methoxypyridin-4-yl)-1,2,4-oxadiazol-3-yl)-2-ethyl-6-methylphenoxy)propyl)(methyl)amino)-3-oxopropanoic acid], the change in vivo at 10 mg/kg in the experiment with circulating lymphocytes is -78%. In experiment [1], this compound showed a 50% effective concentration (EC50) of 0.501 nM.

`CCc1cc(-c2noc(-c3cc(OC)nc(C4CCCC4)c3)n2)cc(C)c1OCCCNCCO` [Example 24, 2-((3-(4-(5-(2-Cyclopentyl-6-methoxypyridin-4-yl)-1,2,4-oxadiazol-3-yl)-2-ethyl-6-methylphenoxy)propyl)amino)ethanol] yielded an EC50 in experiment [1] of 69 nM.

In experiment [1], `CCc1cc(-c2noc(-c3cc(OC)nc(C4CCCC4)c3)n2)cc(C)c1OCCCC(=O)NCCO` [Example 46, 4-(4-(5-(2-Cyclopentyl-6-methoxypyridin-4-yl)-1,2,4-oxadiazol-3-yl)-2-ethyl-6-methylphenoxy)-N-(2-hydroxyethyl)butanamide] gave a concentration giving a half-maximal response (EC50) of 1.8 nM.

In experiment [1], `CCc1cc(-c2nc(-c3cc(OC)nc(C4CCCC4)c3)no2)cc(C)c1OCCN(C)CC(=O)O` [Example 56, 2-((2-(4-(3-(2-Cyclopentyl-6-methoxypyridin-4-yl)-1,2,4-oxadiazol-5-yl)-2-ethyl-6-methylphenoxy)ethyl)(methyl)amino)acetic acid] registered a 50% effective concentration (EC50) of 0.1 nM. This EC50 is about 18-fold lower than that of the compound before.

Regarding `CCc1cc(-c2nnc(-c3cc(OC)nc(C4CCCC4)c3)o2)cc(C)c1OC[C@@H](O)CNC(CO)CO` [Example 65], in experiment [1], it took 0.7 nM to reach a half-maximal effect (EC50). Compared with the last compound, the EC50 is about 7-fold higher.

Consider `CCc1cc(-c2noc(-c3cc(OC)nc(C4CCCC4)c3)n2)cc(C)c1OC[C@@H](O)CNC(=O)CC(=O)O` [Example 14], for which a half-maximal effect in experiment [1] (EC50) was put at 0.03 nM.

In experiment [1], `CCc1cc(-c2noc(-c3cc(OC)nc(C4CCCC4)c3)n2)cc(C)c1OCCN(C)CCC(=O)O` [Example 17, 3-((2-(4-(5-(2-Cyclopentyl-6-methoxypyridin-4-yl)-1,2,4-oxadiazol-3-yl)-2-ethyl-6-methylphenoxy)ethyl)(methyl)amino)propanoic acid] showed an EC50 of 0.2 nM.

As to `CCc1cc(-c2noc(-c3cc(OC)nc(C4CCCC4)c3)n2)cc(C)c1OCCCNCCC(=O)O` [Example 19, 3-((3-(4-(5-(2-Cyclopentyl-6-methoxypyridin-4-yl)-1,2,4-oxadiazol-3-yl)-2-ethyl-6-methylphenoxy)propyl)amino)propanoic acid], the midpoint of the response in experiment [1], the EC50, lay at 0.4 nM.

In experiment [1], `COc1cc(-c2nc(-c3cc(Cl)c(OCCCNC(=O)CO)c(OC)c3)no2)cc(C2CCCC2)n1` [Example 38, N-(3-(2-Chloro-4-(5-(2-cyclopentyl-6-methoxypyridin-4-yl)-1,2,4-oxadiazol-3-yl)-6-methoxyphenoxy)propyl)-2-hydroxyacetamide] displayed an EC50 of 0.893 nM.
